These results are taken from US20240165066A1, “LYMPH-RELEASING COMPOSITIONS OF FATTY ACIDS AND USES THEREOF FOR LYMPHATIC INCORPORATION AND SYSTEMIC DISEASE TREATMENT” (Amarin Pharmaceuticals Ireland Limited, priority 2022, published 2024).

What all share (assay type): cell-based
The subject of assay [1] is Human umbilical vein endothelial cells (HUVECs). The experiment in a line: LC/MS proteomics of HUVECs treated with EPA or DHA and challenged with IL-6. To be noted: for number of proteins whose expression was significantly repressed / number of proteins whose expression was significantly stimulated: compared with IL-6 alone. The method, then:
Human umbilical vein endothelial cells (HUVECs) were isolated into primary cultures from female donors by Clonetics (San Diego, California) and purchased as proliferating cells. All cell culture donors were healthy, with no pregnancy or prenatal complications. The cultured cells were incubated in 95% air/5% CO2 at 37° C. and passaged by an enzymatic (trypsin) procedure. The confluent cells (4 to 5×10^5 cells/35 mm dish) were placed with minimum essential medium containing 3 mM L-arginine and 0.1 mM BH4 [(6R)-5,6,7,8-tetrahydrobiopterin]. Before experimental use, the cells (from second or third passage) were rinsed twice with Tyrode-HEPES buffer with 1.8 mM CaCl2).
EPA and DHA were purchased from Sigma-Aldrich (St. Louis, MO) and prepared initially in redistilled ethanol. Primary and secondary stock solutions were prepared and stored under nitrogen at −20° C.
HUVECs were treated with vehicle, EPA, or DHA (10 μM) for 2 hours, and then challenged with IL-6 (12 ng/mL) for 24 h hours. After incubation, cells were pelleted and frozen at −80° C. until proteomic analysis was performed.
Relative protein expression levels among the various treatments were measured using LC/MS proteomic techniques. Following protein digest, peptides are separated over a reverse phase column and then identified based on their mass.
Cell pellets were lysed using methanol/chloroform extraction. Proteins were denatured, reduced, alkylated, and trypsin digested. Samples were then prepared for Tandem Mass Tag (TMT) 10plex labeling. A bicinchoninic acid (BCA) assay was performed on each sample to quantify the total protein in each sample, which is important to confirm equal amounts of each sample are added to the multiplex sample. Each peptide in a sample was given a unique, low molecular weight (typically 126-130 Da), and then the samples were combined.
Each multiplexed sample was then fractionated to increase the overall protein coverage using high pH reversed phase fractionation and analyzed by LC/MS using a Dionex UltiMate 3000 RSLC in tandem with a Q-Exactive/Lumos Orbitrap Mass Spectrometer. The chromatography was performed using a 2-hour gradient on a Thermo Pepmap C18 column (100 Å pore size, 3.0 μm particle size, […]) set at 50° C. Mobile phase A was water with 0.1% formic acid, and mobile phase B was acetonitrile with 0.1% formic acid.
A bioinformatic package was applied to all the mass spectrometry intensity data known as Differential Enrichment analysis of Proteomics data (DEP) to process proteomic data (FIGS. 35-37).

A further assay deals with brain endothelial cells. The experiment in a line: IL-6 provoked-inflammation cell culture, proteomics. To be noted: brain endothelial cells provoked with IL-6. An excerpt:
(§1) FIG. 34B presents results from a provoked-inflammation cell-culture study with proteomics outcomes, wherein endothelial cells from various tissues were exposed to the inflammatory cytokine IL-6 in the absence or presence of EPA. […] Also of interest are related increases in proteins involved in the related antioxidant ferritin in vascular endothelial cells. Finally fatty acid desaturase 1 (FADS1) encodes the Δ5-desaturase enzyme and fatty acid desaturase 2 (FADS2) encodes the […] enzyme.
(§2) In a series of tissue culture experiments cells were provoked with IL-6 to induce an inflammatory and cellular injury response, and EPA added to determine whether it moderated proteins involved in injury responses. […] Thus, the proteomics results not only affirm the ability of EPA to promote HO-1, but also confirm the ability of EPA to inhibit […], corroborating the aforementioned ability of EtEPA to suppress the Δ5-desaturase index, for example.

Assay [2] deals with pulmonary endothelial cells. The assay is described as above. To be noted: pulmonary endothelial cells provoked with IL-6.
Text: as §1, §2

Assay [3] concerns vascular endothelial cells. The assay is described as above. To be noted: vascular endothelial cells provoked with IL-6.
Text: as §1, §2

Assay [4] concerns Primary human lung microvascular endothelial cells (HMVEC-Ls, PECs). The experiment in a line: LC/MS proteomics of pulmonary endothelial cells exposed to air pollution particulate matter. How it is done: Primary human lung microvascular endothelial cells (HMVEC-Ls, PECs) were purchased from Lonza (Manassas, VA). Cells were cultured in complete endothelial cell growth medium and maintained at 37° C. in a 95% air/5% CO2 humidified incubator. Cells were supplied with fresh medium every other day and propagated by an enzymatic (trypsin) procedure. Cell culture medium also contained 2% FBS to facilitate fatty acid treatment.
EPA was purchased from Sigma-Aldrich (Saint Louis, MO) and solubilized in redistilled ethanol under nitrogen atmosphere and stored at −20° C.
Urban air particulate matter and fine particulate matter were purchased from Sigma-Aldrich (SRM 1648a), catalog #: NIST1648a3110 and NIST27863110. The mean particle diameters were 5.85 and 2.8 μm, respectively.
PECs were pre-treated with EPA (40 μM) for 2 hours in 2% FBS-containing medium and then challenged with urban particulate matter (50 μg/mL) for 2 hours. After 2 hours, media was washed out and HBSS buffer was added. After incubation, cells were pelleted and frozen at −80° C. until proteomic analysis was performed. Relative protein expression levels among the various treatments were measured using LC/MS proteomic techniques (FIG. 40).
Cell pellets were lysed using methanol/chloroform extraction. Proteins were then denatured, reduced, alkylated, and trypsin digested. Samples were labeled by Tandem Mass Tag (TMT) 10plex labeling to multiplex the samples and ensure that the injection, LC, and MS conditions are identical for each sample. A bicinchoninic acid (BCA) assay was performed to quantify the total protein in each sample. Each peptide in a sample was given a unique, low molecular weight (typically 126-130 Da), and then the samples were combined.
Each multiplexed sample was then fractionated to increase the overall protein coverage using high pH reversed phase fractionation and analyzed by LC/MS using a Dionex UltiMate 3000 RSLC in tandem with a Q-Exactive/Lumos Orbitrap Mass Spectrometer.
A ComBat function was applied to all mass spectrometry intensity data to correct for batch effects. The bioinformatic package Differential Enrichment analysis of Proteomics data (DEP) was used to process proteomic data and generate the figures.

Setting [5] is: 10 μM for 2 hours, then IL-6 (12 ng/mL) 24 h, vs IL-6 alone.

Consider `CC/C=C\C/C=C\C/C=C\C/C=C\C/C=C\C/C=C\CCC(=O)O` [DHA, docosahexaenoic acid], for which, in assay [1] (setting [5]), the GSR protein change is given as 1.2-fold increase,, the PRDX1 protein change is reported as 1.1-fold increase,, the PRDX3 protein change was 1.1-fold increase, and the PRDX4 protein change was 1.5-fold increase. Moreover, in assay [1] (setting [5]), the PRDX5 protein change was 1.1-fold increase,, the PRDX6 protein change is recorded as 1.3-fold decrease and the TXN protein change was 1.2-fold increase,. In addition, in assay [1], the “number of proteins whose expression was significantly repressed” value is recorded as 767 proteins and the “number of proteins whose expression was significantly stimulated” value was found to be 864 proteins.

For `CC/C=C\C/C=C\C/C=C\C/C=C\C/C=C\CCCC(=O)O` [EPA, eicosapentaenoic acid], in assay [1] (setting [5]), the DDAH-1 protein change is recorded as 1.1-fold increase,, the DDAH-2 protein change is 1.1-fold increase,, the GSR protein change was 1.1-fold increase, and the PRDX1 protein change was 1.1-fold increase,. In assay [1] (setting [5]), the PRDX2 protein change was 1.1-fold increase,, the PRDX5 protein change is 1.1-fold increase, and the TXN protein change was 1.2-fold increase,. Further, in assay [1], the “number of proteins whose expression was significantly repressed” value was found to be 472 proteins and the “number of proteins whose expression was significantly stimulated” value was 544 proteins. Also, the “HO-1 protein, EPA+IL-6 vs IL-6 alone” value in the assay on brain endothelial cells was 1.5 fold. Besides, the “HO-1 protein, EPA+IL-6 vs IL-6 alone” value in assay [2] was found to be 1.9 fold. For the same molecule, in assay [3], the “HO-1 protein, EPA+IL-6 vs IL-6 alone” value worked out at 2.2 fold. Further, the “number of proteins with significantly modulated expression” value in assay [4] (EPA (40 μM) relative to fine PMs) amounted to 205 proteins. The “number of proteins with significantly modulated expression” value in assay [4] (EPA (40 μM) relative to urban PMs) came out at 347 proteins. Moreover, in assay [4] (Fine PM vs EPA + Fine PM), the “# of Proteins Decreased Expression by Treatment, Neutrophil Degranulation Pathway (GO: 0043312)” value was determined as 11 and the “# of Proteins Increased Expression by Treatment, Neutrophil Degranulation Pathway (GO: 0043312)” value turned out to be 11. Also, in assay [4] (Urban PM vs EPA + Urban PM), the “# of Proteins Decreased Expression by Treatment, Neutrophil Degranulation Pathway (GO: 0043312)” value is recorded as 19 and the “# of Proteins Increased Expression by Treatment, Neutrophil Degranulation Pathway (GO: 0043312)” value was determined as 16. Further, the “number of proteins associated with neutrophil degranulation modulated by EPA treatment” value in assay [4] (compared to fine PMs) was found to be 22 proteins. Also, the “number of proteins associated with neutrophil degranulation modulated by EPA treatment” value in assay [4] (compared to urban PMs) came to 35 proteins.
